Source: the supplement of paper PMC4862054
Several values for one entry are separate records, joined by “and”; a condition that tells them apart may be missing. Identical values can stand only once.

How the values were obtained:
Details in all cases: incubation time: 72 h
[1] = test system: HCC1937; experiment: normalised viability (% of control), CellTiter-Blue; higher = more viable cells (100 = DMSO, 0 = benzethonium chloride kill control)
Outline: (§1)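 Compound dissolved in 5 µl medium was pre-loaded into 384-well plates, and breast cancer cell lines in 20 µl suspension were seeded on top and incubated 72 h. After adding 2.5 µl CellTiter-Blue reagent for 2 h at 37 °C, fluorescence was read at 560/590 nm. Plates were normalised to vehicle (100) and a positive kill control (0), with Z'-factor quality control. Each value is normalised viability at a single listed concentration from the series.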

[2] = test system: CAL-85-1; experiment: as above
Outline: as §1

[3] = test system: HDQ-P1; experiment: as above
Outline: as §1

[4] = test system: SK-BR-3; experiment: as above
Outline: as §1

[5] = test system: CAL-51; experiment: as above
Outline: as §1

[6] = test system: MDA-MB-231; experiment: as above
Outline: as §1

[7] = test system: BT-549; experiment: as above
Outline: as §1

[8] = test system: Hs578T; experiment: as above
Outline: as §1

[9] = test system: BT-474; experiment: as above
Outline: as §1

[10] = test system: MDA-MB-468; experiment: as above
Outline: as §1

[11] = test system: MDA-MB-453; experiment: as above
Outline: as §1

[12] = test system: HCC1599; experiment: as above
Outline: as §1

[13] = test system: HCC1143; experiment: as above
Outline: as §1

[14] = test system: CAL-148; experiment: as above
Outline: as §1

[15] = test system: CAL-120; experiment: as above
Outline: as §1

[16] = test system: DU-4475; experiment: as above
Outline: as §1

[17] = test system: MDA-MB-436; experiment: as above
Outline: as §1

[18] = test system: MFM-223; experiment: as above
Outline: as §1

[19] = test system: HCC1937; experiment: normalised response (% of control), CellTiter-Glo; higher = more viable cells (100 = DMSO, 0 = benzethonium chloride kill control)
Outline: (§2)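 Every value is a normalised signal taken at one concentration of a dilution series. Compound was placed in 384-well plates at 5 concentrations in 10-fold steps over a compound-specific 10,000-fold range, and 20 µl of breast cancer cell suspension was seeded onto it. After 72 h, CellTox Green fluorescence (485/520 nm) was measured first and CellTiter-Glo luminescence second, following 10 min at room temperature. Each plate was scaled to 0.1 % DMSO (100) and a positive kill control (0).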

[20] = test system: CAL-85-1; experiment: as above
Outline: as §2

[21] = test system: HDQ-P1; experiment: as above
Outline: as §2

[22] = test system: SK-BR-3; experiment: as above
Outline: as §2

[23] = test system: CAL-51; experiment: as above
Outline: as §2

[24] = test system: MDA-MB-231; experiment: as above
Outline: as §2

[25] = test system: BT-549; experiment: as above
Outline: as §2

[26] = test system: Hs578T; experiment: as above
Outline: as §2

[27] = test system: BT-474; experiment: as above
Outline: as §2

[28] = test system: MDA-MB-468; experiment: as above
Outline: as §2

[29] = test system: MDA-MB-453; experiment: as above
Outline: as §2

[30] = test system: HCC1599; experiment: as above
Outline: as §2

[31] = test system: HCC1143; experiment: as above
Outline: as §2

[32] = test system: CAL-148; experiment: as above
Outline: as §2

[33] = test system: MCF-10A; experiment: as above
Outline: as §2

[34] = test system: CAL-120; experiment: as above
Outline: as §2

[35] = test system: DU-4475; experiment: as above
Outline: as §2

[36] = test system: MDA-MB-436; experiment: as above
Outline: as §2

[37] = test system: MFM-223; experiment: as above
Outline: as §2

| SMILES | normalised viability [1] | normalised viability [2] | normalised viability [3] | normalised viability [4] | normalised viability [5] | normalised viability [6] | normalised viability [7] | normalised viability [8] | normalised viability [9] | normalised viability [10] | normalised viability [11] | normalised viability [12] | normalised viability [13] | normalised viability [14] | normalised viability [15] | normalised viability [16] | normalised viability [17] | normalised viability [18] | normalised response [19] [%] | normalised response [20] [%] | normalised response [21] [%] | normalised response [22] [%] | normalised response [23] [%] | normalised response [24] [%] | normalised response [25] [%] | normalised response [26] [%] | normalised response [27] [%] | normalised response [28] [%] | normalised response [29] [%] | normalised response [30] [%] | normalised response [31] [%] | normalised response [32] [%] | normalised response [33] [%] | normalised response [34] [%] | normalised response [35] [%] | normalised response [36] [%] | normalised response [37] [%] |
| --- | --- | --- | --- | --- | --- | --- | --- | --- | --- | --- | --- | --- | --- | --- | --- | --- | --- | --- | --- | --- | --- | --- | --- | --- | --- | --- | --- | --- | --- | --- | --- | --- | --- | --- | --- | --- | --- |
| C/C(=C\c1csc(C)n1)[C@@H]1C[C@@H]2O[C@]2(C)CCC[C@H](C)[C@H](O)[C@@H](C)C(=O)C(C)(C)[C@@H](O)CC(=O)N1 [Ixabepilone] (0.1 nM) | 89.2% | 84% | 97.2% | 79.6% | 110% | 99.1% | 90.8% | 90% | 90.4% | 86.7% | 93.5% | 97.3% | 80.9% | 105% | 78.8% | 107% | 104% | 78.8% | 98 | 97.6 | 100 | 108 | 80 | 103 | 98.8 | 100 | 104 | 104 | 127 | 115 | 98.5 | 99.3 | 107 | 95.5 | 101 | 105 | 103 |
| C=CCn1c(=O)c2cnc(Nc3ccc(N4CCN(C)CC4)cc3)nc2n1-c1cccc(C(C)(C)O)n1 [MK1775] (1 nM) | 106% | 78.4% | 84.2% | 92.9% | 89% | 95.2% | 107% | 106% | 90.5% | 105% | 104% | 103% | 104% | 99.8% | 83.5% | 86.6% | 97.9% | 94.8% | 97.9 | 101 | 87.7 | 78.3 | 114 | 90.5 | 101 | 95.8 | 94.4 | 95.2 | 90.2 | 105 | 91.4 | 87.4 | 80.6 | 92.9 | 96.6 | 85.8 | 85.6 |
| CO[C@@H]1[C@H](N(C)C(=O)c2ccccc2)C[C@H]2O[C@]1(C)n1c3ccccc3c3c4c(c5c6ccccc6n2c5c31)C(=O)NC4 [Midostaurin] (1 nM) | 132% | 112% | 108% | 109% | 96.4% | 95.3% | 104% | 104% | 99.7% | 99.5% | 94.3% | 94.2% | 129% | 119% | 113% | 100% | 98.2% | 108% | 93.5 | 104 | 91.2 | 102 | 104 | 107 | 101 | 96.8 | 97.3 | 106 | 92.5 | 109 | 101 | 103 | 93.4 | 97.2 | 94 | 83 | 100 |
| CO[C@@]12[C@H](COC(N)=O)C3=C(C(=O)C(C)=C(N)C3=O)N1C[C@@H]1N[C@@H]12 [Mitomycin C] (1 nM) | 106% | 96.3% | 118% | 90.3% | 110% | 87.4% | 87.3% | 134% | 86.7% | 94.3% | 102% | 94.8% | 98.8% | 109% | 93.9% | 104% | 96.9% | 91.1% | 94.6 | 99.7 | 98.8 | 100 | 82.6 | 95.1 | 105 | 101 | 92.3 | 90.4 | 97.5 | 72.6 | 96 | 95.3 | 93.2 | 94.3 | 95.1 | 82.4 | 93.9 |
| CCNC(=O)c1noc(-c2cc(C(C)C)c(O)cc2O)c1-c1ccc(CN2CCOCC2)cc1 [NVP-AUY922] (0.1 nM) | 91.2% | 104% | 81.1% | 94.8% | 99.5% | 121% | 97.2% | 150% | 109% | 106% | 114% | 103% | 121% | 104% | 111% | 109% | 99.6% | 99.4% | 104 | 107 | 102 | 108 | 94.8 | 106 | 107 | 94.9 | 113 | 105 | 106 | 123 | 101 | 110 | 105 | 107 | 102 | 102 | 106 |
| CC1(C)CCC(c2ccc(Cl)cc2)=C(CN2CCN(c3ccc(C(=O)NS(=O)(=O)c4ccc(N[C@H](CCN5CCOCC5)CSc5ccccc5)c(S(=O)(=O)C(F)(F)F)c4)cc3)CC2)C1 [Navitoclax] (1 nM) | 88.2% | 79.1% | 67% | 78.4% | 109% | 84.6% | 103% | 99.2% | 88.9% | 90.2% | 83.4% | 90.9% | 81.6% | 99.2% | 73.8% | 88.6% | 59.8% | 69.9% | 98.2 | 91.8 | 106 | 92.4 | 74.1 | 99.2 | 102 | 97.6 | 95.7 | 95.1 | 94.4 | 98.6 | 88.7 | 90.3 | 93.5 | 94 | 101 | 95.6 | 93.8 |
| Cc1cn(-c2cc(NC(=O)c3ccc(C)c(Nc4nccc(-c5cccnc5)n4)c3)cc(C(F)(F)F)c2)cn1 [Nilotinib] (1 nM) | 95.5% and 94% | 82.6% and 95.6% | 83.1% and 101% | 93.3% and 92.6% | 106% and 112% | 83.9% and 95.6% | 107% and 98.7% | 97.8% and 107% | 87.9% and 96% | 96% and 99.2% | 88.4% and 92.2% | 103% and 87.9% | 87.8% and 80.8% | 91.4% and 96.9% | 82.1% and 80.6% | 110% and 104% | 111% and 89.4% | 94% and 90.9% | 96.1 | 105 | 96.9 | 103 | 98.1 | 98.8 | 102 | 100 | 93.5 | 106 | 101 | 112 | 95.8 | 93.1 | 95.4 | 98.5 | 105 | 95.7 | 96 |
